Measurements published in a melting point compilation (Tetko et al.; mined from patent text by program, amines drawn as free bases though some values may be those of a salt).

| melting point | SMILES |
| --- | --- |
| 186 to 189 °C | O=c1ccoc2cc(OCCCNCC3COc4ccc(O)cc4O3)ccc12 (centres undefined) |
| 219 to 220 °C | CCOc1ccc(-c2nc(C)c(C(=O)O)s2)cc1Cl |
| 84 to 86 °C | CC(C)(C)c1cccc(S(=O)(=O)n2ccc3cc(C(F)(F)F)ccc32)c1 |
| 105 to 106 °C | CCN(CC)c1cccc2nc3n(c12)C=CCCN3c1ccc(Cl)cc1Cl |
| 138 °C | Cc1ccc(S(=O)(=O)N2[C@@H](CCc3nnco3)CC[C@H]2c2ccc(F)cc2)cc1 (racemic) |
| 138 to 140 °C | Cc1ccc(S(=O)(=O)Nc2ccc([C@@H](C)C(N)=O)cc2)cc1 |
| 174 °C | O=C(O)CCCc1cc2nc(Cl)ccc2n1S(=O)(=O)c1ccc(-c2ccncc2)cc1 |
| 182 to 183 °C | COC(=O)COc1ccc2cc(CNC(=O)c3cc(-c4ccc(Cl)cc4)oc3C(F)(F)F)ccc2c1 |
| 164 to 165 °C | O=C(O)c1ccc(Cl)cc1Nc1ccc(O)cc1 |
| 173 to 174 °C | C=C1c2ccccc2C(=O)N1c1ccncc1 |
| 96 to 98 °C | O=[N+]([O-])c1ccc(Oc2ccccc2)cc1OCc1ccccc1 |
| 211 to 213 °C | Cc1cc(C)cc(N2CCN(C(=O)Nc3cc(-c4cccnc4)nc4ccccc34)CC2)c1 |
| 194 to 196 °C | OC1(c2ccc(Cl)cc2)c2ccc(Cl)cc2-c2ncncc21 (centres undefined) |
| 157 to 158 °C | CCc1noc(=O)c2ccc(NC(=O)C(=O)CC(C)(C)c3cc(F)ccc3OC)cc12 |
| 278 to 280 °C | CN(C)CCCc1cc(C(=O)Nc2ccc(-c3ccc(C(=O)O)cc3)cc2)ccc1O |
| 226 to 228 °C | O=c1c2c(Cc3ccccc3)n[nH]c2c2cccnc2n1-c1cccc(C(F)(F)F)c1 |

More lines, now with the values behind:

| SMILES | melting point |
| --- | --- |
| Cc1c(C)c2c(c(C)c1O)C(=O)C(C)(C)O2 | 142 to 144 °C |
| O=C(NCCCCCCNC(=O)N(O)Cc1ccccc1)N(O)Cc1ccccc1 | 181 to 182 °C |
| Cc1ncc(-c2nc3cc4c(cc3[nH]2)NC(=O)C4(C)C)cn1 | > 350 °C |
| O=C(O)CC1(O)CCC(N2CCC(Nc3ccncc3)CC2)CC1 (centres undefined) | 261 °C |
| CC1(C)Cc2cc(OCC(=O)O)c(Cl)c(Cl)c2C1=O | 182 °C |
| N#Cc1ccc(Nn2cnnc2)cc1-c1ccoc1 | 199 to 200 °C |
| COc1cccc2c1OC(CO)CC2 (centres undefined) | 57 to 58 °C |
| N#Cc1c(Cl)c(Cl)c(Oc2ccccc2)c(Cl)c1C#N | 147 to 150 °C |
| CCOC1CCCC(C2NC(=O)C2C(C)O[Si](C)(C)C(C)(C)C)C1O (centres undefined) | 136 to 138 °C |
| COc1cccc2nc(-c3ccc4c(c3)NC(=O)C4(C)C)[nH]c12 | 222 to 225 °C |
| O=C1CCCCC1c1ccccc1F (centres undefined) | 47 to 49 °C |
| O=C1CC(=Cc2ccccc2)C(=O)O1 | 167 to 170 °C |
| CC(C)OC(=O)N1CC(=O)Nc2ccc(Br)cc21 | 159 to 161 °C |
| CCN(CC)C(=O)COc1ccc(CCC(=O)NS(=O)(=O)CCC(C)C)c(Oc2ncc(C(F)(F)F)cc2Cl)c1 | 123 to 125 °C |
| CC(C)c1nc2ccccn2c(=O)c1-c1ccc(NC2CCN(C(=O)OC(C)(C)C)C2)cc1 (centres undefined) | 232 to 236 °C |
| CC(C)(C)c1cc(C(C)(CCC(=O)O)c2ccc(O)c(C(C)(C)C)c2)ccc1O | 155 °C |
| O=C(Cl)C(Oc1cccc(C(F)(F)F)c1)c1ccc(Cl)cc1 (centres undefined) | 96 to 98 °C |
| C=CCC1(c2ccccc2)OC(C(=O)OC)Oc2ccc(Cl)cc21 (centres undefined) | 70 °C |
| CC(=O)Oc1ccccc1C(=O)C1c2ccccc2C(=O)N1CCO[N+](=O)[O-] (centres undefined) | 81 to 83 °C |
| NC(=O)N1CCC(C2c3ncc(Br)cc3CCc3cc(Cl)cc(Cl)c32)CC1 (single isomer, unassigned; (+)) | 102 to 103 °C |
| Cc1c(F)cc(C(=O)NCCC(C)C)cc1-c1ccc(C(=O)NCC(C)(C)C)cc1C(=O)Nc1nccs1 | 159 to 164 °C |
| COc1cc(-c2cc3c(Cl)ccnc3[nH]2)cc(OC)c1OC | 188 to 190 °C |
| COC(=O)NC1=NCC(c2cccc(OC)c2)CN1 (centres undefined) | 218 to 221 °C |
